Where two headings read alike, the source gives them in different places. Bounds are passed on as bounds.

For data set [1], the system named is lung cancer model, pancreatic cancer model, colon cancer model. Put plainly: Tumor growth inhibition in mouse cancer models. On the procedure:
Studies determining efficacy of PFK-158 at inhibiting tumor growth in mouse cancer models were performed. These studies were carried out with PFK-158 alone and in combination with compounds currently used in the treatment of cancer patients. Studies were performed in a lung cancer model, a pancreatic cancer model, and in a colon cancer model.
Efficacy of PFK-158 was studied in vivo in tumor models. Several tumor models were used in these studies (the Lewis lung carcinoma, or LLC model, the CT-26 colon carcinoma tumor model, or the BXPC3 pancreatic cancer model). The experimental protocol for the LLC study is described below. Subsequent to subcutaneous inoculation of tumor cells, tumors started to develop and once tumors reached the desired volume of 100-125 mm^3 on average, treatment was initiated. Tumor volume was monitored in both groups and the average for both the control and treatment groups was measured three times a week, as well as body weights.
Briefly, normal female C57BL/6 mice at 7-8 weeks of age were used for the study. Mice were housed in microisolator housing, with food and water provided as libitum, and quarantined for 4 days prior to the initiation of the study. LLC cells were maintained in a monolayer culture in DMEM medium supplemented with 10% heat inactivated fetal calf serum, 100 U/ml penicillin and 100 μg/ml streptomycin, and L-glutamine (2 mM) at 37° C. in an atmosphere of 5% CO2 in air. The tumor cells were routinely sub-cultured twice a week. The cells growing in an exponential phase were harvested and counted for tumor inoculation. Each mouse was inoculated subcutaneously at the right flank with the LLC tumor cells (3×10^5) in 0.1 ml of PBS for tumor development. When athymic nude mice were used, as for the BxPC3 model, then the strain of mice is slightly different. Furthermore, the use of Matrigel supports tumor development, meaning that cells are suspended in 100 μl of a mixture of medium/Matrigel (1:1) and are then subcutaneously implanted in the right flank region. Animals were monitored for tumor growth daily after cell implantation. When tumor volumes reached approximately 100-125 mm^3, mice were randomized into groups of 8 mice each using only mice having tumor volumes closest to the mean value. Tumor volumes were measured using the formula V=L×W×H×π/6, where L and W represent the longer and shorter diameters of the tumor and H represents the height of the tumor. Treatment began following randomization. PFK-158 was administered IP at a dose of 60 mg/kg on days 1, 3, 5, 7, 9, 11, and 13.
Similar protocols were used for the other studies using different models; differences included the use of Balbc/nude mice; administering larger number of cancer cells; and use of Matrigel.

In the next data set the target is PFKFB3 (Homo sapiens, UniProt Q16875). Nature of the data set: Enzymatic activity of PFKFB3 in cells (F2,6BP levels, Van Schaftingen method). The class given is cell-based. On the set-up: endogenous in cells; host or cells: Jurkat cells. On the procedure:
Inhibition of PFKFB3 can also be measured in cells by measuring fructose-2,6-biphosphate levels according to the Van Schaftingen method (Eur. J. of Biochem, 129: 191 (1982)). This method enables measurement of the inhibition in a cellular environment, a model more relevant than the pure recombinant protein. Briefly, Jurkat cells were plated at 1×10^5 cells/mL and incubated with different concentrations of PFK-158 for 3 hours. Samples were collected and cells were lysed. Extracts were characterized as described in previous reports and normalized to protein concentration.

The subject of a further data set is LLC tumor. Nature of the data set: Lewis lung carcinoma (LLC) model. The data set is classed as in vivo. The conditions noted are these: IP 60 mg/kg on days 1, 3, 5, 7, 9, 11, 13. From the text: Treatment began following randomization.
A short description of data set [2]: Photoisomerization in formulation. The data set is classed as physicochemical. The conditions noted are these: phospho-lipidic aqueous emulsion or emulsifier-free, solvent-free aqueous solution. From the text: Further, the solubility properties of PFK-158 are such that, if required, the compound can be administered using either a phospho-lipidic aqueous based emulsion, or in an emulsifier-free, solvent-free aqueous based solution.

A short description of data set [3]: In vitro stability in human liver microsomes. The data set is classed as in vitro ADME. A general note: Liver microsomes are vesicles of endoplasmic reticulum, rich in cytochrome P450 enzymes.
Data set [4] in a line: IV pharmacokinetics in mice. The data set is classed as in vivo, Balbc mice. On the procedure:
The pharmacokinetic (PK) parameters for PFK-158 were determined in mice following IV (intravenous) administration in mice and rats. A typical study design includes six animals (male or female) 7 to 8 weeks old.
Mouse pharmacokinetic properties using a dose of 5 mg/kg were determined after IV administration using a 10% DMSO, 10% PEG-200, 10% Solutol:ethanol (1:1) and 70% D5W solution or any other pharmaceutically acceptable parenteral formulation. Blood samples were collected at different intervals. Plasma samples were extracted and analyzed using an LC-MS/MS method. Similar protocols were used for the rat PK study (Sprague Dawley rats; 30 mg/kg), although the formulation for rat PK studies differed (30% Captisol, pH 3.0 solution). Time vs. plasma concentration plots were prepared as shown in FIGS. 4 (BalbC mice) and 5 (SD rats), respectively. Pharmacokinetic parameters were calculated and are provided below in Table 7.

Data set [5] is described as follows: Repeat-dose toxicology study in SD rats. The class given is in vivo. On the procedure:
Toxicology studies were performed in SD rats comparing PFK-158 and PFK-015 using a repeat dosing schedule. The studies were performed at dose levels ranging from 5 to 30 mg/kg and animals were monitored for weight loss, behavior, clinical signs, and clinical chemistries. At the end of the study, gross pathology and histopathology were performed.

The nature of data set [6]: Maximum tolerated dose study. The conditions noted are these: 3 days on/3 days off schedule. The data set is classed as in vivo. On the procedure:
Several maximum tolerated dose studies and toxicology studies were performed and the results indicated PFK-158 is safer than PFK-015. Studies were performed in C57/B16 mice and SD rats.

Setting [7] is: Table 7, Mouse (5 mg/kg), IV, Balbc mice.
The mark [8] stands for this setting: mouse, plasma, 5 mg/kg, Table 2, Balbc mice, IV dosing.

Chain of PFKFB3 (Q16875 whole entry): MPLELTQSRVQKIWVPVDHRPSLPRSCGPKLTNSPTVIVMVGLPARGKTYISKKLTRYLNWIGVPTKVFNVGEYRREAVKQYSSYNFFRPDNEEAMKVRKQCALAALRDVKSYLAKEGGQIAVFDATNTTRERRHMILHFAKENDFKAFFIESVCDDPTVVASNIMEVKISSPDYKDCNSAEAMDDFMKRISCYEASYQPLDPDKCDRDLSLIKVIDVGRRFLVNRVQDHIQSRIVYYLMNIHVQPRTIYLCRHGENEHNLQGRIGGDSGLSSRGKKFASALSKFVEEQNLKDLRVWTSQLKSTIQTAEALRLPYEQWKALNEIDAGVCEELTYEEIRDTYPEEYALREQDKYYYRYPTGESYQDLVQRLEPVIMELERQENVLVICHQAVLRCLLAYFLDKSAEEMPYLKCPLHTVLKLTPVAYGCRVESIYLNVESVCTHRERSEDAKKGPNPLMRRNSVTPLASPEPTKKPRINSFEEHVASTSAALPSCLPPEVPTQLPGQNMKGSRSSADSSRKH

By IC50 is commonly meant the point on the concentration scale where inhibition reaches its midpoint. A word on the Cmax: it is the highest concentration seen after dosing. The term clearance denotes the rate of elimination divided by the concentration. High values mean efficient removal, low ones inefficient removal. As usually defined, the half-life is how long it takes for the measured level to halve. Lower therefore signals fast loss. With `O=C(/C=C/c1ccc2ccc(C(F)(F)F)cc2n1)c1ccncc1` [PFK-158, (E)-1-(pyridyn-4-yl)-3-(7-(trifluoromethyl)quinolin-2-yl)-prop-2-en-1-one], the tumor growth inhibition in data set [1] (lung, pancreatic and colon cancer mouse models) is listed as 50% to 70. Further, the body weight loss entry in data set [1] (mouse, in vivo) is reported as “without noticeable body weight loss or death”. In addition, the “effect of combination with other chemotherapeutic agents” value in data set [1] (tumor models, FIGS. 6-8) is given as “additive or synergistic effect”. Moreover, the IC50 at PFKFB3 (FIG. 3, Jurkat cells, 3 hours, read-out: IC50, PFKFB3 in cells by fructose-2,6-biphosphate levels) turned out to be 1600 ± 800 nM; at PFKFB3 (Table 1, F2,6BP levels, Jurkat cells, read-out: IC50, Enzymatic activity of PFKFB3 in cells), 1600 ± 800 nM; at PFKFB3 (Table 6, Jurkat cells, read-out: IC50 Cellular PFKFB3 (F2,6BP)), 1620 ± 400 nM; on PFKFB3 (Table 8, read-out: IC50, Enzymatic activity of PFKFB3 in cells), 1600 ± 800 nM. Moreover, the “body weight loss (tolerability)” value in the data set with LLC tumor was “no noticeable body weight loss”. In addition, the photoisomerization in solution result in data set [2] is “does not, in the formulation mentioned above, undergo a rapid photoisomerization”. Moreover, in data set [3], the “Percent metabolized after 1 hr” value amounted to 37%. Further, the “AUC(0-inf)” value in data set [4] (setting [7]) is 3,235 ng · h/ml; in data set [4] (Table 9, BalbC mice, IV dosing), 3235 ng·h/mL; in data set [4] (mouse, plasma, 5 mg/kg, Table 2, Balbc mice, IV dosing, read-out: AUC0-inf), 3240 ng·h/mL. The maximum concentration (Cmax) is 4,176 ng/mL in data set [4] (setting [7]) and 4180 ng/mL in data set [4] (mouse, plasma, 5 mg/kg, Table 2, Balbc mice, IV dosing, read-out: Cmax). This molecule also had a T1/2b in data set [4] (setting [7]) of 10.4 h. Further, the T1/2 in data set [4] (Table 9, BalbC mice, IV dosing) is 10.5 h. In addition, in data set [4] (setting [8]), the clearance came out at 26 mL/min/kg. This molecule gave a half-life in data set [4] (setting [8]) of 10.5 h. The MTD is greater than 30 mg/kg in data set [5] (rat, in vivo, repeat dosing schedule); greater than 45 mg/kg in data set [6] (C57/B16, mouse, in vivo, read-out: MTD); “Not reached, >45 mg/kg” in data set [6] (Table 4, body weight loss superior to 10% or death). In data set [5] (repeat dosing, PFK-158 5 to 30 mg/kg, PFK-015 12 and 25 mg/kg), the “Adverse observations in toxicology study” value is given as “no adverse observations”.

(Values after US9649305B2, “PFKFB3 inhibitor and methods of use as an anti-cancer therapeutic” (ADVANCED CANCER THERAPEUTICS, LLC, priority 2012, dated 2017).)
